The nature of one data set: Pharmacokinetics in rats. To be noted: Sprague-Dawley, rat, plasma, po, SD rats, IG 5 mg/kg; for AUC(0-t): read-out: AUC(0-24 h); for MRT last: read-out: MRT(0-t). The class given is in vivo. Here is the method: 4.1 Pharmacokinetics in Rats
SD rats weighing 180-220 g were randomly grouped with 3 rats in each group after 3-5 days of adaptive feeding, and intragastrically administered with compounds 1-1 and 8-1 at a dosage of 5 mg/kg.
The animals to be tested (SD rats) were fasted for 12 h before administration and fed 4 h after administration, and water was freely drunk before, after and during the experiment.
After intragastric administration, about 0.2 mL of blood was collected from the orbit at 0 min, 15 min, 30 min, 1 h, 2 h, 4 h, 6 h, 8 h, 10 h and 24 h, and after anticoagulation with EDTA-K2, blood samples were transferred to a centrifuge within 30 min, and centrifuged at 4000 rpm for 10 min at 4° C. to separate the plasma. All plasma samples were collected and immediately stored at −20° C. for testing.
50 μL of the plasma sample to be tested was added with 300 μL of acetonitrile solution containing an internal standard (20 mg/mL diazepam), shaken and mixed well for 5 min, and centrifuged at 13,000 rpm for 10 min. 75 μL of supernatant was taken and diluted with 75 μL of ultrapure water. After being mixed well, 2 μL of the resulting sample was taken for LC/MS/MS determination, and a chromatogram was recorded.
Oral exposure of the compounds disclosed herein was evaluated by in vivo pharmacokinetic experiments in rats.

For data set [1], the system named is human platelet Caspase-3 activity. The experiment in a line: Human platelet toxicity experiment (Caspase-3 activity assay). Type of data set: cell-based. To be noted: compound concentration 1 μM, 90 min; data normalized, reference ABT-199. The method, then:
Experimental Example 6: Human Platelet Toxicity Experiment (Caspase-3 Activity Assay)
10 mL of human whole blood was collected using a heparin sodium anticoagulation tube, mixed well by turning upside down, and centrifuged at 90 g for 10 min. The supernatant was collected and centrifuged at 1950 g for 10 min. The supernatant was discarded, and the residue was resuspended in 4 mL of PBS, and centrifuged at 1190 g for 5 min, and the procedure was repeated once. The supernatant was discarded, and the platelets were resuspended in PBS and adjusted to the density of 2-3×10^8 cells/mL. Cells were seeded into a 96-well plate at a density of 2-3×10^7 cells/mL and at 100 μL/well. 50 μL of control buffer was added to each negative control well, and 50 μL of compound at a corresponding concentration was added to each compound well, so that the final concentration of the compound was 2.5 μM, 2 μM, 1 μM or 0.5 μM, followed by incubation in an incubator at 37° C. for 90 min. The liquids in the 96-well plate were transferred to 1.5 mL centrifuge tubes, respectively. The tubes were centrifuged at 4° C. and 6000 g for 5 min, and placed on ice for later use after the supernatant was discarded. 5× lysis buffer was diluted into 1× lysis buffer with water in the kit, and protease inhibitor cocktail was added at a 1:200 ratio to prepare a lysis mixture for later use. 40 μL of lysis mixture was added to each centrifuge tube, and the platelets at the bottom were resuspended using a pipette. The suspension was lysed on ice for 15-20 min and centrifuged at 4° C. and 14,000 g for 10 min. The sample was sub-packaged for later use. 10× assay buffer was diluted into 1× assay buffer with water in the kit, and substrate Ac-DEVD-AMC was added at a 1:600 ratio to prepare a reaction mixture. 5 μL of assay buffer and 40 μL of reaction mixture were added to each blank control well. 5 μL of control platelet lysate and 40 μL of reaction mixture were added to each negative control well. 5 μL of platelet lysate and 40 μL of reaction mixture were added to each compound well. In this procedure, 40 μL of reaction mixture was added at last. The resulting mixture was mixed gently, and the plate was read by a PE Envision multi-functional microplate reader (excitation: 360 nm, emission: 460 nm) once every 10 min for 6 times. Caspase-3 activity was determined based on the intensity of the released AMC fluorescence, that is the slope of the fitted line to which each well corresponds represents Caspase activity (all data were normalized and the reference was ABT-199).

Another data set deals with T1, BCL-XL/BAK (Homo sapiens, UniProt Q07817).
T1 construct: purchased Cisbio
The experiment in a line: Screening on inhibitory activity for BCL-XL/BAK binding (Cisbio HTRF kit). The procedure, abridged:
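Tag1-BCL-XL and Tag2-BAK (2 nM and 80 nM before mixing) were combined with compounds at final 2000–0.488 nM (4-fold, 7 points, duplicates) for 15 min at 25° C. Eu3+ anti-Tag1 and XL665 anti-Tag2 were then added for ≥2 h at 25° C. HTRF (620/665 nm) gave IC50 by four-parameter fit.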
For orientation: In TR-FRET formats the signal depends on donor and acceptor labels being close together.

Data set [2] in a line: In vitro stability in mouse liver microsomes. The class given is in vitro ADME. To be noted: 1 μM. The method, then:
(§1) Experimental Example 3: In Vitro Stability in Liver Microsome
(§2) 300 μL of the final incubation system contains 30 μL of liver microsomes (protein concentration: 5 mg/mL), 30 μL of NADPH+MgCl2, 3 μL of the test compound (in acetonitrile), and 237 μL of PBS buffer (pH 7.4), wherein the proportion of the organic solvent (acetonitrile) is 1% (volume ratio). Two duplicate samples were prepared for each specie (mouse, rat and human), and each sample was 0.3 mL. Each tube which was added with 270 μL of a mixed solution of substrate and enzyme, and NADPH, after being pre-incubated at 37° C. for 5 min, was added with 30 μL of NADPH+MgCl2 and mixed. Then 50 μL of the mixture was taken at 0 min, 15 min, 30 min and 60 min, and added with 300 μL of glacial acetonitrile containing an internal standard to terminate the reaction.
(§3) 50 μL of the incubated sample was added with 300 μL of glacial acetonitrile containing an internal standard (20 ng/mL diazepam) for precipitation, vortexed for 5 min, and centrifuged (13,000 rpm, 20° C.) for 10 min. 70 μL of supernatant was taken and diluted with 70 μL of ultrapure water. After being mixed well, 1 μL of the resulting sample was injected for analysis.
In general terms: Liver microsomes are a subcellular fraction often used to study metabolism.

Data set [3] can be described thus: In vitro stability in human liver microsomes. The class given is in vitro ADME. To be noted: 1 μM. The method, then:
as §1, §2, §3

For orientation: AUC(0-inf) means the area under the concentration-time curve extrapolated to infinity. Read a high AUC(0-inf) as high exposure. In general, Cmax refers to the highest concentration seen after dosing. The Tmax is the time at which the peak concentration occurs. As usually defined, the half-life is the time needed for the level to fall by half in the phase considered. For orientation: IC50 means the midpoint of a concentration-inhibition curve. Lower therefore signals greater potency.

T1 sequence (Q07817 whole entry, species assumed): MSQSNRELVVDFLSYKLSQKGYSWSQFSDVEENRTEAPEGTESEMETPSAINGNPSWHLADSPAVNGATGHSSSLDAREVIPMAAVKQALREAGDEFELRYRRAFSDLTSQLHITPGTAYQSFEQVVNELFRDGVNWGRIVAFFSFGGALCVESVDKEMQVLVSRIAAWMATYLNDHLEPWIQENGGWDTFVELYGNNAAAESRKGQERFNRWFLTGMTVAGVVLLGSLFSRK

In the case of `CC1(C)CCC(CN2CCN(c3ccc(C(=O)NS(=O)(=O)c4ccc(NC[C@H]5COCCO5)c([N+](=O)[O-])c4)c(Oc4cnc5[nH]ccc5c4)c3)CC2)=C(c2ccc(C(F)(F)F)cc2Cl)C1` [Compound 8-1], in “Pharmacokinetics in rats”, the AUC(0-inf) stood at 6560 ± 1800 ng·h/mL, the Cmax came out at 739 ± 226 ng/mL, the Tmax was 4 h and the half-life is 7.62 ± 2.78 h. Further, in the data set “Pharmacokinetics in rats”, the AUC(0-t) was found to be 5970 ± 2020 ng·h/mL and the MRT last was 7.35 ± 0.45 h. For the same compound, the “human platelet Caspase-3 activity, Slope” value in data set [1] is 0.59. On BCL-XL/BAK, this compound came in with a half-maximal inhibitory concentration (IC50) of 155 nM. The “Mouse Residual content after 60 min (%)” value in data set [2] came to 73.9%. The “Human Residual content after 60 min (%)” value in data set [3] is given as 86.3%.
With `CC1(C)CCC(CN2CCN(c3ccc(C(=O)NS(=O)(=O)c4ccc(NCC5CCOCC5)c([N+](=O)[O-])c4)c(Oc4cnc5[nH]ccc5c4)c3)CC2)=C(c2ccc(C(F)(F)F)cc2Cl)C1` [Compound 1-1, 4-(4-{[2-(2-chloro-4-trifluoromethylphenyl)-4,4-dimethylcyclohex-1-enyl]methyl}-piperazin-1-yl)-N-({3-nitro-4-[(tetrahydro-2H-pyran-4-ylmethyl)amino]phenyl}sulfonyl)-2-(1H-pyrrolo[2,3-b]pyridin-5-yloxy)-benzamide], in the data set “Pharmacokinetics in rats”, the area under the curve AUC(0-inf) came out at 4460 ± 1340 ng·h/mL, the peak level (Cmax) was 378 ± 83.5 ng/mL, the Tmax was 4 h and the half-life was 8.73 ± 0.31 h. Also, in “Pharmacokinetics in rats”, the AUC(0-t) came to 3700 ± 848 ng·h/mL and the MRT last stood at 8.95 ± 4.99 h. Further, the “human platelet Caspase-3 activity, Slope” value in data set [1] is given as 0.67. On BCL-XL/BAK, the half-maximal inhibitory concentration (IC50) turned out to be 133 nM. Also, in data set [2], the “Mouse Residual content after 60 min (%)” value worked out at 78.9%. Further, the “Human Residual content after 60 min (%)” value in data set [3] was 70.8%.

(Values after patent US20250257064A1, “TRIFLUOROMETHYL-SUBSTITUTED SULFONAMIDE AS BCL-2-SELECTIVE INHIBITOR” (Chia Tai Tianqing Pharmaceutical Group Co., Ltd., priority 2018, published 2025).)
